Laboratory results as given in ChEMBL document CHEMBL1201861, “Genomics of Drug Sensitity in Cancer screening data, Wellcome Trust Sanger Institute”.

Legend:
Test in all cases: cells
COLO-824 = format: functional, cell-based, Homo sapiens; conditions: Homo sapiens, COLO-824
Description: SANGER: Inhibition of human COLO-824 cell growth in a cell viability assay.

COR-L88 = format: functional, cell-based, Homo sapiens; conditions: Homo sapiens, COR-L88;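 further: growth inhibition of COR-L88 cells, read out with a cell viability assay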
Description: SANGER: Inhibition of human COR-L88 cell growth in a cell viability assay.

CTV-1 = format: functional, cell-based, Homo sapiens; conditions: Homo sapiens, CTV-1;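 further: growth inhibition of the cell line, read out with a cell viability assay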
Description: SANGER: Inhibition of human CTV-1 cell growth in a cell viability assay.

Calu-6 = format: functional, cell-based, Homo sapiens; conditions: Homo sapiens, Calu-6;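 further: growth of human Calu-6 cells, read out by a cell viability assay, IC50 marking inhibition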
Description: SANGER: Inhibition of human Calu-6 cell growth in a cell viability assay.

D283 Med = format: functional, cell-based, Homo sapiens; conditions: Homo sapiens, D283 Med
Description: SANGER: Inhibition of human D-283MED cell growth in a cell viability assay.

D-502MG = format: functional, cell-based, Homo sapiens; conditions: Homo sapiens, D-502MG
Description: SANGER: Inhibition of human D-502MG cell growth in a cell viability assay.

EKVX = format: functional, cell-based, Homo sapiens; conditions: Homo sapiens, EKVX;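 further: growth inhibition of human EKVX cells, read out with a cell viability assay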
Description: SANGER: Inhibition of human EKVX cell growth in a cell viability assay.

ETK-1 = format: functional, cell-based, Homo sapiens; conditions: Homo sapiens, ETK-1;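 further: growth inhibition of human ETK-1 cells, read out with a cell viability assay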
Description: SANGER: Inhibition of human ETK-1 cell growth in a cell viability assay.

EW-11 = format: functional, cell-based, Homo sapiens; conditions: Homo sapiens, EW-11;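 further: growth inhibition of human EW-11 cells, measured with a cell viability assay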
Description: SANGER: Inhibition of human EW-11 cell growth in a cell viability assay.

EW-18 = format: functional, cell-based, Homo sapiens; conditions: Homo sapiens, EW-18; read-out: IC50;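 further: growth inhibition of EW-18 cells, read out by a cell viability assay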
Description: SANGER: Inhibition of human EW-18 cell growth in a cell viability assay.

GR-ST = format: functional, cell-based, Homo sapiens; conditions: Homo sapiens, GR-ST
Description: SANGER: Inhibition of human GR-ST cell growth in a cell viability assay.

HCE-T = format: functional, cell-based, Homo sapiens; conditions: Homo sapiens, HCE-T;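 further: cell viability assay read-out, reporting inhibition of HCE-T cell growth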
Description: SANGER: Inhibition of human HCE-T cell growth in a cell viability assay.

IA-LM = format: functional, cell-based; conditions: Homo sapiens;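 further: cell viability assay measuring growth inhibition of human IA-LM cells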
Description: SANGER: Inhibition of human IA-LM cell growth in a cell viability assay.

KARPAS-45 = format: functional, cell-based, Homo sapiens; conditions: Homo sapiens, KARPAS-45;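 further: inhibition of cell line growth, read out through a viability assay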
Description: SANGER: Inhibition of human KARPAS-45 cell growth in a cell viability assay.

KM12 = format: functional, cell-based, Homo sapiens; conditions: Homo sapiens, KM12;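 further: KM12 cell growth inhibition, read out with a cell viability assay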
Description: SANGER: Inhibition of human KM12 cell growth in a cell viability assay.

KNS-81-FD = format: functional, cell-based, Homo sapiens; conditions: Homo sapiens, KNS-81-FD;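 further: growth inhibition of KNS-81-FD cells, read out with a cell viability assay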
Description: SANGER: Inhibition of human KNS-81-FD cell growth in a cell viability assay.

KY821 = format: functional, cell-based, Homo sapiens; conditions: Homo sapiens, KY821;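 further: growth inhibition of human KY821 cells, read out by a cell viability assay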
Description: SANGER: Inhibition of human KY821 cell growth in a cell viability assay.

LB1047-RCC = format: functional, cell-based, Homo sapiens; conditions: Homo sapiens, LB1047-RCC;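 further: inhibition of cell growth, determined with a cell viability assay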
Description: SANGER: Inhibition of human LB1047-RCC cell growth in a cell viability assay.

LB831-BLC = format: functional, cell-based, Homo sapiens; conditions: Homo sapiens, LB831-BLC;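 further: growth inhibition of LB831-BLC cells, read out with a cell viability assay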
Description: SANGER: Inhibition of human LB831-BLC cell growth in a cell viability assay.

LS-1034 = format: functional, cell-based, Homo sapiens; conditions: Homo sapiens, LS-1034
Description: SANGER: Inhibition of human LS-1034 cell growth in a cell viability assay.

LS-411N = format: functional, cell-based, Homo sapiens; conditions: Homo sapiens, LS-411N
MFM-223 = format: functional, cell-based, Homo sapiens; conditions: Homo sapiens, MFM-223
Description: SANGER: Inhibition of human MFM-223 cell growth in a cell viability assay.

MHH-PREB-1 = format: functional, cell-based, Homo sapiens; conditions: Homo sapiens, MHH-PREB-1;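 further: cell viability assay measuring inhibition of proliferation of human MHH-PREB-1 cells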
Description: SANGER: Inhibition of human MHH-PREB-1 cell growth in a cell viability assay.

MLMA = format: functional, cell-based, Homo sapiens; conditions: Homo sapiens, MLMA;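 further: growth inhibition of MLMA cells (human), determined through a cell viability readout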
Description: SANGER: Inhibition of human MLMA cell growth in a cell viability assay.

MPP-89 = format: functional, cell-based, Homo sapiens; conditions: Homo sapiens, MPP-89;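 further: growth inhibition of human MPP-89 cells, read out with a cell viability assay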
Description: SANGER: Inhibition of human MPP-89 cell growth in a cell viability assay.

MS-1 = format: functional, cell-based, Homo sapiens; conditions: Homo sapiens, MS-1;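 further: growth inhibition of MS-1 cells, read out by cell viability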
Description: SANGER: Inhibition of human MS-1 cell growth in a cell viability assay.

NCI-H1304 = format: functional, cell-based, Homo sapiens; conditions: Homo sapiens, NCI-H1304;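 further: growth inhibition of the cancer cell line, measured in a cell viability assay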
Description: SANGER: Inhibition of human NCI-H1304 cell growth in a cell viability assay.

NCI-H1770 = format: functional, cell-based, Homo sapiens; conditions: Homo sapiens, NCI-H1770;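 further: growth inhibition of NCI-H1770 cells determined with a viability readout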
Description: SANGER: Inhibition of human NCI-H1770 cell growth in a cell viability assay.

NCI-H446 = format: functional, cell-based, Homo sapiens; conditions: Homo sapiens, NCI-H446;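 further: growth inhibition of NCI-H446 cells determined by a cell viability assay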
Description: SANGER: Inhibition of human NCI-H446 cell growth in a cell viability assay.

NCI-H526 = format: functional, cell-based, Homo sapiens; conditions: Homo sapiens, NCI-H526;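 further: growth inhibition of the human NCI-H526 cell line, measured by a cell viability assay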
Description: SANGER: Inhibition of human NCI-H526 cell growth in a cell viability assay.

P30-OHK = format: functional, cell-based, Homo sapiens; conditions: Homo sapiens, P30-OHK;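 further: growth inhibition of the P30-OHK cell line, read out with a cell viability assay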
Description: SANGER: Inhibition of human P30-OHK cell growth in a cell viability assay.

RERF-LC-MS = format: functional, cell-based; conditions: Homo sapiens;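 further: growth inhibition of human RERF-LC-MS cells, read out by a cell viability assay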
Description: SANGER: Inhibition of human RERF-LC-MS cell growth in a cell viability assay.

RXF 393 = format: functional, cell-based, Homo sapiens; conditions: Homo sapiens, RXF 393;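 further: growth inhibition of human RXF 393 cells, read out with a cell viability assay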
Description: SANGER: Inhibition of human RXF393 cell growth in a cell viability assay.

SF-268 = format: functional, cell-based, Homo sapiens; conditions: Homo sapiens, SF-268;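 further: growth inhibition of SF-268 cells determined with a cell viability assay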
Description: SANGER: Inhibition of human SF268 cell growth in a cell viability assay.

SJRH30 = format: functional, cell-based; conditions: Homo sapiens;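 further: growth inhibition of human SJRH30 cells, read out with a cell viability assay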
Description: SANGER: Inhibition of human SJRH30 cell growth in a cell viability assay.

SK-N-DZ = format: functional, cell-based, Homo sapiens; conditions: Homo sapiens, SK-N-DZ; read-out: IC50;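 further: growth inhibition of the cancer cell line, read out through a viability assay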
Description: SANGER: Inhibition of human SK-N-DZ cell growth in a cell viability assay.

SNB-75 = format: functional, cell-based, Homo sapiens; conditions: Homo sapiens, SNB-75;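 further: cell viability assay measuring growth inhibition of human SNB-75 cells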
Description: SANGER: Inhibition of human SNB75 cell growth in a cell viability assay.

A101D = format: functional, cell-based, Homo sapiens; conditions: Homo sapiens, A101D;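 further: growth inhibition of the cell line, measured with a viability assay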
Description: SANGER: Inhibition of human A101D cell growth in a cell viability assay.

A4-Fuk = format: functional, cell-based, Homo sapiens; conditions: Homo sapiens, A4-Fuk;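 further: growth inhibition of A4-Fuk cells, read out by a cell viability assay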
Description: SANGER: Inhibition of human A4-Fuk cell growth in a cell viability assay.

ACN = format: functional, cell-based, Homo sapiens; conditions: Homo sapiens, ACN;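 further: growth inhibition of the human ACN cell line, read out via cell viability testing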
Description: SANGER: Inhibition of human ACN cell growth in a cell viability assay.

AM-38 = format: functional, cell-based, Homo sapiens; conditions: Homo sapiens, AM-38;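 further: growth inhibition of AM-38 cells of human origin, read out by a cell viability assay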
Description: SANGER: Inhibition of human AM-38 cell growth in a cell viability assay.

BB49-HNC = format: functional, cell-based, Homo sapiens; conditions: Homo sapiens, BB49-HNC;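 further: cell viability assay read-out, reported as inhibition of BB49-HNC cell growth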
Description: SANGER: Inhibition of human BB49-HNC cell growth in a cell viability assay.

Becker = format: functional, cell-based, Homo sapiens; conditions: Homo sapiens, Becker;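 further: growth inhibition of Becker cells, read out with a cell viability assay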
Description: SANGER: Inhibition of human Becker cell growth in a cell viability assay.

TE-5 = format: functional, cell-based, Homo sapiens; conditions: Homo sapiens, TE-5;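 further: inhibition of cell growth, read out by a cell viability assay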
Description: SANGER: Inhibition of human TE-5 cell growth in a cell viability assay.

TE-6 = format: functional, cell-based, Homo sapiens; conditions: Homo sapiens, TE-6;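 further: growth inhibition of TE-6 cells, read out with a cell viability assay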
Description: SANGER: Inhibition of human TE-6 cell growth in a cell viability assay.

TGBC1TKB = format: functional, cell-based, Homo sapiens; conditions: Homo sapiens, TGBC1TKB;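 further: growth inhibition of TGBC1TKB cells, read out by a cell viability assay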
Description: SANGER: Inhibition of human TGBC1TKB cell growth in a cell viability assay.

UACC-62 = format: functional, cell-based; conditions: Homo sapiens;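 further: growth inhibition of human UACC-62 cells, read out by a cell viability assay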
Description: SANGER: Inhibition of human UACC-62 cell growth in a cell viability assay.

VA-ES-BJ = format: functional, cell-based, Homo sapiens; conditions: Homo sapiens, VA-ES-BJ;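 further: growth inhibition of the VA-ES-BJ cell line, read out by a cell viability assay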
Description: SANGER: Inhibition of human VA-ES-BJ cell growth in a cell viability assay.

COLO-668 = format: functional, cell-based, Homo sapiens; conditions: Homo sapiens, COLO-668
Description: SANGER: Inhibition of human COLO-668 cell growth in a cell viability assay.

D-247MG = format: functional, cell-based; conditions: Homo sapiens
Description: SANGER: Inhibition of human D-247MG cell growth in a cell viability assay.

C/C(=C\c1csc(C)n1)[C@@H]1C[C@@H]2O[C@]2(C)CCC[C@H](C)[C@H](O)[C@@H](C)C(=O)C(C)(C)[C@@H](O)CC(=O)O1 [PATUPILONE]
IC50 (COLO-824): 23.3 nM | IC50 (COR-L88): > 32 nM | IC50 (CTV-1): 5.16 nM | IC50 (Calu-6): 7.14 nM | IC50 (D283 Med): > 32 nM | IC50 (D-502MG): > 32 nM | IC50 (EKVX): > 32 nM | IC50 (ETK-1): 0.979 nM | IC50 (EW-11): > 32 nM | IC50 (EW-18): 2.63 nM | IC50 (GR-ST): 3.91 nM | IC50 (HCE-T): 4.07 nM | IC50 (IA-LM): 0.393 nM | IC50 (KARPAS-45): 5.82 nM | IC50 (KM12): 2.24 nM | IC50 (KNS-81-FD): > 32 nM | IC50 (KY821): > 32 nM | IC50 (LB1047-RCC): 2 nM | IC50 (LB831-BLC): 6.03 nM | IC50 (LS-1034): 0.912 nM | IC50 (LS-411N): 23.6 nM | IC50 (MFM-223): > 32 nM | IC50 (MHH-PREB-1): 7.51 nM | IC50 (MLMA): 14.1 nM | IC50 (MPP-89): 8.29 nM | IC50 (MS-1): 10.2 nM | IC50 (NCI-H1304): 17.5 nM | IC50 (NCI-H1770): 0.907 nM | IC50 (NCI-H446): 21.4 nM | IC50 (NCI-H526): 7.24 nM | IC50 (P30-OHK): 4.49 nM | IC50 (RERF-LC-MS): 24.5 nM | IC50 (RXF 393): 3.41 nM | IC50 (SF-268): 4.66 nM | IC50 (SJRH30): 12.9 nM | IC50 (SK-N-DZ): 7.59 nM | IC50 (SNB-75): 3.01 nM | IC50 (A101D): 0.856 nM | IC50 (A4-Fuk): 1.09 nM | IC50 (ACN): 1.07 nM | IC50 (AM-38): 7.56 nM | IC50 (BB49-HNC): > 32 nM | IC50 (Becker): 2.86 nM | IC50 (TE-5): 3.04 nM | IC50 (TE-6): 23 nM | IC50 (TGBC1TKB): > 32 nM | IC50 (UACC-62): > 32 nM | IC50 (VA-ES-BJ): 4.35 nM | IC50 (COLO-668): > 32 nM

Cc1cc(N2CCOCC2)cc2[nH]c(-c3c(NC[C@@H](O)c4cccc(Cl)c4)cc[nH]c3=O)nc12
IC50 (COLO-824): > 5120 nM | IC50 (COR-L88): > 5120 nM | IC50 (CTV-1): 2880 nM | IC50 (Calu-6): > 5120 nM | IC50 (D-247MG): > 5120 nM | IC50 (D283 Med): > 5120 nM | IC50 (D-502MG): > 5120 nM | IC50 (EKVX): 2510 nM | IC50 (ETK-1): 96.1 nM | IC50 (EW-11): > 5120 nM | IC50 (EW-18): > 5120 nM | IC50 (GR-ST): 3270 nM | IC50 (HCE-T): > 5120 nM | IC50 (IA-LM): > 5120 nM | IC50 (KARPAS-45): 4010 nM | IC50 (KM12): 28.4 nM | IC50 (KNS-81-FD): > 5120 nM | IC50 (KY821): > 5120 nM | IC50 (LB1047-RCC): 642 nM | IC50 (LB831-BLC): 1500 nM | IC50 (LS-1034): 758 nM | IC50 (LS-411N): 498 nM | IC50 (MFM-223): > 5120 nM | IC50 (MHH-PREB-1): > 5120 nM | IC50 (MLMA): 2010 nM | IC50 (MPP-89): 3500 nM | IC50 (MS-1): > 5120 nM | IC50 (NCI-H1304): > 5120 nM | IC50 (NCI-H1770): > 5120 nM | IC50 (NCI-H446): > 5120 nM | IC50 (NCI-H526): > 5120 nM | IC50 (P30-OHK): > 5120 nM | IC50 (RXF 393): 1300 nM | IC50 (SF-268): 3040 nM | IC50 (SK-N-DZ): 2110 nM | IC50 (SNB-75): 3430 nM | IC50 (A101D): 1890 nM | IC50 (A4-Fuk): 57.8 nM | IC50 (ACN): 1980 nM | IC50 (AM-38): > 5120 nM | IC50 (BB49-HNC): > 5120 nM | IC50 (Becker): 4790 nM | IC50 (TE-5): > 5120 nM | IC50 (TE-6): > 5120 nM | IC50 (TGBC1TKB): 2310 nM | IC50 (VA-ES-BJ): > 5120 nM | IC50 (COLO-668): 1190 nM

NC(=O)Nc1cc(-c2cccc(F)c2)sc1C(=O)N[C@H]1CCCNC1 [AZD-7762]
IC50 (COLO-824): > 2000 nM | IC50 (COR-L88): 365 nM | IC50 (CTV-1): 39 nM | IC50 (Calu-6): 1410 nM | IC50 (D-247MG): > 2000 nM | IC50 (D283 Med): 137 nM | IC50 (D-502MG): > 2000 nM | IC50 (EKVX): > 2000 nM | IC50 (ETK-1): 637 nM | IC50 (EW-11): 563 nM | IC50 (EW-18): 1600 nM | IC50 (GR-ST): 178 nM | IC50 (HCE-T): 442 nM | IC50 (IA-LM): 1400 nM | IC50 (KARPAS-45): 168 nM | IC50 (KM12): 51.6 nM | IC50 (KNS-81-FD): > 2000 nM | IC50 (KY821): 214 nM | IC50 (LB1047-RCC): 60.2 nM | IC50 (LB831-BLC): > 2000 nM | IC50 (LS-1034): > 2000 nM | IC50 (LS-411N): 376 nM | IC50 (MFM-223): 1240 nM | IC50 (MHH-PREB-1): 34.4 nM | IC50 (MLMA): 28.5 nM | IC50 (MPP-89): 245 nM | IC50 (MS-1): > 2000 nM | IC50 (NCI-H1304): > 2000 nM | IC50 (NCI-H1770): > 2000 nM | IC50 (NCI-H446): 748 nM | IC50 (NCI-H526): 1540 nM | IC50 (P30-OHK): 132 nM | IC50 (RERF-LC-MS): 677 nM | IC50 (RXF 393): 290 nM | IC50 (SF-268): 881 nM | IC50 (SK-N-DZ): 531 nM | IC50 (SNB-75): 1200 nM | IC50 (A101D): 1700 nM | IC50 (A4-Fuk): 74.9 nM | IC50 (ACN): 172 nM | IC50 (AM-38): > 2000 nM | IC50 (BB49-HNC): 1400 nM | IC50 (Becker): 658 nM | IC50 (TE-5): 1420 nM | IC50 (TE-6): > 2000 nM | IC50 (TGBC1TKB): 1920 nM | IC50 (UACC-62): 776 nM | IC50 (VA-ES-BJ): 226 nM | IC50 (COLO-668): > 2000 nM
